# Assay results published in patent publication US20090247520A1, “INHIBITORS OF ANTIGEN RECEPTOR-INDUCED NF-kappa B ACTIVATION” (The Burnham Institute for Medical Research, priority 2008, published 2009).
# Like-named read-outs stand apart in the source and are kept apart here.
# Key:
# [1] = test system: PDB-induced NF-κB reporter gene activity; test: PDBu-induced NF-κB reporter gene activity in HEK293 cells; type: cell-based; conditions: Homo sapiens
# Description: (A) Structures of two hit compounds, CID-2858522 (left) and CID-2998237 (right) are shown; (B, C) 293-NF-κB-luc cells were pretreated for 2 hrs with various concentration of either CID-2858522 (B) or CID-29982387 (C) and then stimulated with TNF (10 ng/mL) or PMA/lonomycin (10 ng/mL; 5 ng/mL) for 16 h. Luciferase activity was measured and data were expressed as a percentage relative to control treatment with DMSO only (mean±SD; n=3). (D) 293-NF-κB-luc cells were pretreated for 2 h with various concentrations of CID-2858522 or CID-2998237, then stimulated with PMA/lonomycin for 16 h. IL-8 release into the medium was measured, expressing data as a percentage relative to control cultures treated with DMSO (mean±SD; n=3). (E) 293-NF-κB-luc cells were pretreated with CID-2858522 and then stimulated with PDBu for 16 h, IL-8 production and NF-κB luciferase activity were measured as above. (F) 293-NF-κB-luc cells were pretreated for 2 h with various concentrations of CID-2858522 or a PKC inhibitor (Bisindolylmaleimide I) at 1 μM followed by PMA/Ionomycin (10 ng/mL) stimulation for 2 h, then p65-DNA-binding activity was measured in nuclear extracts (10 μg protein), expressing data as fold-increase relative to unstimulated cells (mean±SD; n=3).
# HTS. […] Plates were analyzed within 30 seconds with a Criterion Analyst™ using the luminescence method (0.1 second read/well).
# [2] = test system: HEK293 cells; test: Cell viability assay (ATPlite), HEK293 cells; type: cell-based
# Description: Cell viability assay. Cell viability was estimated based on cellular ATP levels, measured using ATPlite kit (Perkin Elmer). Cells at a density of 10^5/mL were seeded at 90 μL per well in 96-well white plates and cultured overnight. Compounds were added (5 μL in medium) to wells and cells were cultured for […], Finally, 50 μL ATPlite solution was added to each well and luminescence activity was read using a luminometer (LJL Biosystems, Sunnyvale, Calif.).
# [3] = biological target: T1, purified luciferase (Photinus pyralis, UniProt P08659); test: Luciferase inhibition counter screen, in vitro enzymatic assay; type: biochemical; conditions: not shown
# T1 construct: purchased Perkin Elmer
# T1 sequence (P08659 whole entry, species assumed): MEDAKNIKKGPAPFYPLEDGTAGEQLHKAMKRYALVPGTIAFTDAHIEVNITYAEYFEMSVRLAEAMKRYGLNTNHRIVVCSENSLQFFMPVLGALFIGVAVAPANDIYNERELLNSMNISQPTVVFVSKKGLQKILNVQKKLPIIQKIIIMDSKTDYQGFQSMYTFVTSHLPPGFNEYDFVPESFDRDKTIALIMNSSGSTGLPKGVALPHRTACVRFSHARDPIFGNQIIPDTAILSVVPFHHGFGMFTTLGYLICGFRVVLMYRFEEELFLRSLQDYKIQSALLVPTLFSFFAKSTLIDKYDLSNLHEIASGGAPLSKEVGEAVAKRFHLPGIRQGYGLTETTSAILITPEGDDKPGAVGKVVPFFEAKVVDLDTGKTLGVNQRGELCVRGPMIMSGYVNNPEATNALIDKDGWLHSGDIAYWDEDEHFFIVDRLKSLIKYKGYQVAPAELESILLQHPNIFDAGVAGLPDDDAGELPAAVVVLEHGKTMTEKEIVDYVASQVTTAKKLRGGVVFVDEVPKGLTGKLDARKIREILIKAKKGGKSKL
# Description: Counter Screening and Secondary Assays. To counter-screen for inhibitors of the TNF pathway, HEK293-NFκB-Luc cells were seeded at 10^5 cells per well in 90 μL medium in white 96-well plates (Greiner Bio-One) and cultured overnight, before adding compounds (5 μL in medium) to cells. After 2 h incubation, 5 μL TNF (200 ng/mL) (R&D Systems) was added (final concentration 10 ng/mL) and cells were incubated for 16 h. Luciferase activity was measured using Britelite kit (Perkin Elmer). To counter-screen for inhibitors of NF-κB induced by TLR4, CD40, NOD1, NOD2, cIAP2/MALT, or XIAP/TAB, the 293-NF-κB-luc cells cultured in 96 well plates as above were pretreated with compounds for 2 h and then transfected using Lipofectamine 2000 with various plasmids including pcDNA3 (“empty vector” control) or plasmids encoding CD4-TLR4, CD40, NOD1, NOD2, cIAP2/MALT, XIAP/TAB, using 0.2 μL of transfection reagent containing 100 ng DNA per well. Cells were cultured in medium containing CID-2858522 or other compounds and luciferase activity was measured 48 h later. […] Reactions were then initiated by addition of 50 μL 160 nM ATP (Sigma) in PBS and luciferase activity was measured 2 h later using a luminometer (LJL Biosystems, Sunnyvale, Calif.).
# [4] = test system: IKK-β phosphorylation; test: PMA/Ionomycin-induced IKK-β phosphorylation in HEK293 cells; type: cell-based; conditions: 4 μM
# Description: FIG. 7. CID-285852 inhibits IKKβ phosphorylation induced by PKC activators. (A) HEK293 cells were cultured in 0.5% FBS medium for 24 h and then treated with CID-2858522 (4 μM) or PKC inhibitor, Bisindolylmaleimide I (1 μM) for 2 hrs followed by PMA/Ionomycin (10 ng/mL; 5 ng/mL) for 2 h. Cell lysates were subjected to immunoprecipitation using anti-CARMA1 antibody and analyzed by immunoblotting with anti-phospho-CARMA1 antibody or anti-CARMA1 antibody. (B-E) HEK293 cells were transfected with plasmids encoding myc-CARMA1 in combination with plasmids encoding various other proteins including Caspase-8 (cys287ala) (B), HA-IKK-γ (C), HA-TAK1 (D), and TRAF6 (E). After 36 h. cells were cultured in 0.5% FBS medium for 12 h and then treated with CID-2858522 (4 μM) or Bisindolylmaleimide I (1 μM) for 2 hrs, followed by PMA/Ionomycin treatment (10 ng/mL; 5 ng/mL) for 2 hrs. Cell lysates were immunoprecipated using anti-myc antibody and analyzed by immunoblotting using anti-Caspase8 (B), anti-HA (C,D), or anti-TRAF6 (E) antibodies. […] Cell lysates were normalized for protein content and analyzed by immunoblotting using anti-FLIP and anti-alpha-tubulin antibodies. […] Cell lysates were immunoprecipitated using anti-IKK-β and analyzed by immunoblotting using anti-phospho-IKK-β antibody or anti-IKK-β antibody (as loading control). […]
smiles,measurement,setting,value
"Cc1cc2nc(NCCCO)n(CC(=O)c3cc(C(C)(C)C)c(O)c(C(C)(C)C)c3)c2cc1C [Compound 1, 2-(2-(3-Hydroxypropylamino)-5,6-dimethyl-1H-benzo[d]imidazol-1-yl)-1-(3,5-di-tert-butyl-4-hydroxyphenyl)ethanone]",IC50,"[1]; read-out: IC50, PDB-induced NF-κB reporter gene activity",70 nM
same,IC50,"[1]; read-out: IC50, PDBu-induced NF-κB reporter gene assay (cellular potency)",< 100 nM
same,concentrations not toxic to HEK293 cells,[2],≤ 8 µM
same,inhibition of luciferase activity,[3],did not inhibit
same,inhibition of PMA/Ionomycin-induced IKK-β phosphorylation,[4],significantly inhibited
